Laboratory results taken from publication PMC13261364 (International journal of biological macromolecules, 2025).
Read-outs that look alike come from different tables or passages of the source.

B1: PaCAγ1, γ-class carbonic anhydrase from Pseudomonas aeruginosa PAO1 (PA5540) (enzyme, UniProt Q9HT34 1-186, looked up)
chain: MIRKNPSGDLPVIDESAYVDKTAIICGKVIIQANVFVGPYAVIRADEVDADGGMQPIVIGANSNIQDGVVIHSKSGAAVTIGEHSSIAHRSIVHGPCEVGDRVFIGFNSVLFNCRVGDGCVVRHNAVVDGCDLPAGFYVPSTERIGPRTDLASMPRVSVSASEFSEDVARTNVDLVRGYKSLQNEF
notes: PaCAγ1, γ-class carbonic anhydrase encoded by PA5540 of P. aeruginosa PAO1; synthetic gene in pET21d; The initiator methionine is absent in the purified protein by LC-MS; source: E. coli BL21 (DE3), purified (His Trap HP, SEC Superdex 75); not shown: His6, C-terminal, kept

What was measured:
[1] = molecular target: PaCAγ1 (Pseudomonas aeruginosa, UniProt Q9HT34); assay: biochemical; conditions: Stopped-Flow assay, mean from 3 different assays
[2] = molecular target: hCA I (Homo sapiens, UniProt P00915); assay: Stopped-flow CO2 hydration inhibition assay, hCA I; assay type: biochemical
Chain of hCA I (P00915 whole entry): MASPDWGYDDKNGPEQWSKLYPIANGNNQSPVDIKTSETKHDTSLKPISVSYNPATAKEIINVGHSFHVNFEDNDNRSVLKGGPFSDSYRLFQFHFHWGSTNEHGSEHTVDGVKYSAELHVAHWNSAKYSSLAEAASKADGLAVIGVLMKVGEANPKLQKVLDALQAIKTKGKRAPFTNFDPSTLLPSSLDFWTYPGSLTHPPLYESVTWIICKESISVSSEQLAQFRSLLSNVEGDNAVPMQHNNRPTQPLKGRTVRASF

[3] = molecular target: hCA II (Homo sapiens, UniProt P00918); assay: Stopped-flow CO2 hydration inhibition assay, hCA II; assay type: biochemical; conditions: mean from 3 different assays, errors ±5–10 %
[4] = system: PaCAγ1; assay: biochemical; conditions: Selectivity Index, ratio of KI
[5] = molecular target: psCA1; conditions: read-out: KI psCA1; 20 °C, 10 mM Tris buffer, 20 mM NaClO4 pH 8.3; ref [52]; cited from earlier work
[6] = system: Helicobacter pylori; conditions: without triggering resistance; ref [37]; cited from earlier work
[7] = system: Neisseria gonorrhoeae; design: method as in PMID 33765392, PMID 34894972; conditions: treatment with CA inhibitor; no apparent development of resistance; ref [35],[36]; cited from earlier work
[8] = molecular target: the molecule itself; assay: SEC-MALS; SEC-MALS-QELS; 700 μg of purified protein loaded on the SEC s75 column, 20 mM TRIS, 150 mM NaCl, pH 8.5, flow rate 0.5 mL/min
[9] = Stopped-Flow assay, mean from 3 different assays, errors ±5–10 %, read-out: KI hCA I

| Molecule | Ki [1] [nM] | also measured |
| --- | --- | --- |
| Nc1cc(Cl)c(S(N)(=O)=O)cc1S(N)(=O)=O [Compound 12] | 6090 |  |
| NS(=O)(=O)Cc1noc2ccccc12 [ZNS] | 4170 |  |
| NS(=O)(=O)c1ccc(C(=O)O)cc1 [Compound 18] | 793 ± 46.2 |  |
| Nc1nccc(Nc2ccc(S(N)(=O)=O)cc2)n1 [Compound 19] | 1320 |  |
| Cc1onc(-c2ccccc2)c1-c1ccc(S(N)(=O)=O)cc1 [VLX] | > 100000 |  |
| NS(=O)(=O)c1nnc(NS(=O)(=O)c2ccccc2)s1 [BZA] | 290 ± 14.4 |  |
| NS(=O)(=O)c1ccc(CCNS(=O)(=O)c2ccc([N+](=O)[O-])cc2CO)cc1 [Compound 21] | 564 ± 32.9 |  |
| Cn1nc(S(N)(=O)=O)sc1=N [Compound 14] | 97.1 ± 5.32 |  |
| NS(=O)(=O)c1cc(Cl)cc(Cl)c1O [Compound 10] | 9670 |  |
| NS(=O)(=O)c1cc(Cl)c(Cl)c(S(N)(=O)=O)c1 [DCP] | 5680 |  |
| CC(=O)/N=c1/sc(S(N)(=O)=O)nn1C [MZA] | 68.4 ± 2.93 |  |
| NS(=O)(=O)c1ccc(CO)cc1 [Compound 16] | 533 ± 25.8 |  |
| CC1(C)O[C@@H]2[C@@H](CO[C@@]3(COS(N)(=O)=O)OC(C)(C)O[C@@H]23)O1 [TPM] | > 100000 |  |
| Cc1ccc(S(N)(=O)=O)cc1 [Compound 6] | 266 ± 14.2 | Ki [2]: 21000 nM |
| NS(=O)(=O)c1ccc(CCO)cc1 [Compound 17] | 419 ± 17.7 |  |
| NC(N)=Nc1nc(CSCC/C(N)=N/S(N)(=O)=O)cs1 [FAM] | 2690 | Ki [2, 9]: 922 nM; Ki [3]: 58 nM; SI hCA I/PaCAγ1 [4]: 0.3; SI hCA II/PaCAγ1 [4]: 0.02 |
| NS(=O)(=O)c1cccc(S(N)(=O)=O)c1 [Compound 5] | 561 ± 32.4 | Ki [2, 9]: 25000 nM |
| NS(=O)(=O)c1ccc(S(=O)(=O)Nc2cccc3c(Cl)c[nH]c23)cc1 [IND] | 453 ± 20.1 |  |
| Nc1cccc(S(N)(=O)=O)c1 [Compound 1] | 189 ± 7.11 |  |
| Nc1ccc(S(=O)(=O)NCc2ccc(S(N)(=O)=O)cc2)cc1 [Compound 23] | 828 ± 51.7 |  |

| Molecule | Ki [1] [nM] | also measured |
| --- | --- | --- |
| Nc1ccc(S(=O)(=O)Nc2ccc(S(N)(=O)=O)cc2)cc1 [Compound 22] | 386 ± 19.3 |  |
| Nc1cccc(S(N)(=O)=O)c1 [ABS, 3-amino-benzene suldonamide] |  | Ki [5]: 19 nM |
| Nc1nnc(S(N)(=O)=O)s1 [Compound 13] | 72.6 ± 3.43 |  |
| Nc1cc(C(F)(F)F)c(S(N)(=O)=O)cc1S(N)(=O)=O [Compound 11] | 3670 |  |
| CCOc1ccc2nc(S(N)(=O)=O)sc2c1 [EZA, ethoxzolamide] |  | effect on H. pylori growth [6]: inhibited bacterial growth; effect on N. gonorrhoeae [7]: long-lasting bacteriostatic effects |
| NS(=O)(=O)c1cc2c(cc1Cl)NCNS2(=O)=O [HTC] | 6600 | SI hCA I/PaCAγ1 [4]: 0.05; SI hCA II/PaCAγ1 [4]: 0.04 |
| CCN[C@H]1CN(CCCOC)S(=O)(=O)c2sc(S(N)(=O)=O)cc21 [BRZ] | 307 ± 13.1 |  |
| Nc1ccc(S(=O)(=O)Nc2nnc(S(N)(=O)=O)s2)cc1 [Compound 20] | 244 ± 16.2 |  |
| NS(=O)(=O)c1ccc(O)cc1 [Compound 15] | 209 ± 9.19 |  |
| NS(=O)(=O)NCCNc1nonc1/C(=N\c1ccc(F)c(Br)c1)NO [EPC] | 5320 | Ki [2, 9]: 8260 nM; Ki [3]: 917 nM; SI hCA I/PaCAγ1 [4]: 1.6; SI hCA II/PaCAγ1 [4]: 0.2 |
| Nc1ccc(S(=O)(=O)NCCc2ccc(S(N)(=O)=O)cc2)cc1 [Compound 24] | 584 ± 22.2 |  |
| NS(=O)(=O)c1ccc(N2CCCCS2(=O)=O)cc1 [SLT] | 356 ± 23.8 |  |
| Nc1ccc(S(N)(=O)=O)cc1Cl [Compound 8] | 697 ± 44.7 |  |
| CC(=O)Nc1nnc(S(N)(=O)=O)s1 [AAZ, acetazolamide] |  | effect on N. gonorrhoeae [7]: long-lasting bacteriostatic effects |
| Nc1ccc(S(N)(=O)=O)cc1Br [Compound 9] | 3490 |  |
| O=C1NS(=O)(=O)c2ccccc21 [SAC] | 13800 |  |
| Nc1ccc(S(N)(=O)=O)cc1 [Compound 2] | 155 ± 5.23 |  |
| NCc1ccc(S(N)(=O)=O)cc1 [Compound 3] | 132 ± 8.86 |  |
| Nc1ccc(S(N)(=O)=O)cc1F [Compound 7] | 325 ± 13.8 |  |
| B1 |  | stoichiometry N [8]: 3 |
